Laboratory results from paper PMC9328652, “A novel class of fast‐acting antimalarial agents: Substituted 15‐membered azalides” (British Journal of Pharmacology, 2020).
In brackets after ≈: the same amount, converted by molar mass.

Tests used:
haem polymerization = test: Cell-free haem polymerization assay; assay type: biochemical; details: cell‐free, N = 2
Protocol: Experiments were performed according to Tripathi, Khan, Walker, and […] ([2004]). Briefly, a solution of sodium acetate containing mono-oleoyl glycol and the corresponding inhibitor at different concentrations is placed in 1.5-ml reaction tubes. […] Multiple washing steps with Tris/SDS and bicarbonate, to remove monomeric haem and haem aggregates, allow quantification of de novo formed β-haematin.

H. influenzae ATCC49247 = test: Antibacterial screen, broth microdilution; assay type: cell-based; details: Haemophilus influenzae
Protocol: (§1) Antibacterial activity of compounds was determined by a standard broth microdilution method (Clinical Laboratory Standard Institute CLSI, [2009]), except that for Streptococcus strains lysed blood was substituted with 5% horse serum in the testing medium. […] The activities are expressed as minimum inhibitory concentrations (MICs) in units of μg·ml^−1. […] The organisms tested represented macrolide sensitive Gram‐positive pathogens that are mainly targeted by macrolide antibiotics. Tested streptococci were clinical isolates Streptococcus pneumoniae SP030 and Streptococcus pyogenes 3565 from internal strain collection, and other strains were obtained from ATCC bioresource centre, Staphylococcus aureus ATCC13709, Haemophilus influenzae ATCC49247, and Moraxella catarrhalis ATCC23246. Double dilutions of tested compounds were prepared using TECAN Genesis 150. Bacteria were grown on appropriate agar plates (Becton Dickinson, USA)—Columbia agar with 5% sheep blood for streptococci and M. catarrhalis, Mueller‐Hinton chocolate agar for H. influenzae , and Mueller‐Hinton agar for staphylococci.

S. aureus ATCC13709 = test: Antibacterial screen, broth microdilution; assay type: cell-based; details: Staphylococcus aureus
Protocol: as §1

S. pneumoniae SP030 = test: Antibacterial screen, broth microdilution; assay type: cell-based; details: Streptococcus pneumoniae
Protocol: as §1

S. pyogenes 3565 = test: Antibacterial screen, broth microdilution; assay type: cell-based; details: Streptococcus pyogenes
Protocol: as §1

[1] = Pharmacokinetic studies in CD-1 mice; details: for B/P (ratio of AUC0−t in whole blood and plasma): after oral administration; for DNAUCPO (AUC0−t divided by the dose) / Cmax: blood; for DNAUCPO (AUC0−t divided by the dose): oral gavage 12.5 mg·kg^−1; for half-life / Vd / clearance / bioavailability / AUC(0-t) / Cmax: Swiss albino CD-1, mouse; for Vd / clearance: iv; for AUC(0-t): AUC0-t; for AUC(0-t) / Cmax: oral gavage 12.5 mg/kg; for Cmax: C max
Protocol: For pharmacokinetic (PK) studies in mice, animals were dosed either by intravenous (i.v.) or oral (p.o.) route. For i.v. administration, the dosing volume was 10 ml·kg^−1 for a total dose of 12.5 mg·kg^−1, and for p.o. administration, the dosing volume was 20 ml·kg^−1 for a total dose of 12.5 mg·kg^−1. Dosing solutions were prepared in 100% saline ([…]) both for i.v. and p.o. administration for all compounds with the exception of compound 4 for which dosing solutions were prepared in PBS with 5% Cremophor‐EL (Fluka). Following i.v. dosing, blood samples were collected at 5 and 15 min, 1, 3, 6, 8, 24, and 48 h post‐dose. Following oral dosing, blood samples were collected at 15 and 30 min, 1, 2, 4, 6, 8, 24, and 48 h post‐dose.
For studies performed in Swiss albino CD‐1 mice (Harlan Laboratories, Spain), in order to obtain simultaneous blood and plasma profiles and blood‐to‐plasma (B/P) ratio, PK was performed using terminal sampling of N = 3 animals per time point and data evaluated using composite analysis. For studies performed in P. falciparum infected and non‐infected NODscidβ2m^−/− mice (Charles River Laboratories, France), only whole blood was obtained by serial sampling of N = 3 animals using tail puncture.
For analysis of whole blood samples, 25 μl of fresh blood were mixed with 25 μl of saponin solution (0.1% in water) and immediately frozen on dry ice. Plasma was obtained by centrifugation of fresh blood at 2,500 g for 10 min. Both blood and plasma samples were stored frozen at −80°C until analysis.
Diluted blood and plasma samples were processed under standard liquid–liquid extraction procedures using acetonitrile containing internal standard (clarithromycin, 100 ng·ml^−1) and analysed by LC–MS/MS in positive ion mode with electrospray. Samples were assayed for parent compound using a Sciex API 4000 and Sciex API‐2000 Triple Quadrupole Mass Spectrometer (Sciex, Division of MDS Inc., Toronto, Canada), against a series of matrix matched calibration curve standards, using multiple reaction monitoring (MRM) at the specific transitions for each compound. Non‐compartmental analysis was performed using WinNonlin, version 4.1 (Pharsight, Mountain View, CA), and the main pharmacokinetic parameters were estimated.

[2] = tested on: P. falciparum 3D7^0087/N9; test: P. falciparum murine model (humanized mice), 4-day test; assay type: in vivo, Plasmodium falciparum; details: for ED90: oral QD for 4 days, parasitaemia at day 7, humanized mice
Protocol: The in vivo efficacy evaluation of the compounds was performed using a P. falciparum murine model of malaria in non‐myelodepleted NOD. Cg‐Prkdc^ scid –β2m^ tm1Unc ‐scid IL2R_null (NODscidβ2m^−/−) mice engrafted with human erythrocytes as described previously (Angulo‐Barturen et al., [2008]; Jimenez‐Diaz et al., [2005]; Jimenez‐Diaz et al., [2009]; Jimenez‐Diaz et al., [2009]), as this model enables testing of P. falciparum strains with high infectious burden. Briefly, groups of three mice engrafted with human erythrocytes were infected with 20 × 10^6 of P. falciparum 3D7^0087/N9‐infected erythrocytes/mouse by intravenous route. The mice were randomly assigned to their corresponding experimental groups. The treatment of oral doses QD for 4 days started at day 3 after infection. Parasitaemia was measured at days 3, 5, and 7 post‐infection. The therapeutic efficacy was expressed as the dose (mg·kg^−1) that reduced parasitaemia in peripheral blood of mice at day 7 after infection by 90% (ED90) with respect to vehicle‐treated mice. Chloroquine was included as quality control for each in vivo assay. Efficacy is expressed as the daily dose (ED90), or equivalent exposure (AUCED90), administered to mice necessary to reduce parasitaemia at day 7 by 90% with respect to vehicle‐treated mice. The ED90 is estimated by fitting a four‐decade logistic equation for the log10 [parasitaemia at day 7] versus the log10 [dose] using GraphPad Prism 5.01 (GraphPad Software Inc., San Diego, CA).

[3] = whole blood, po, 12.5 mg/kg, F, CD‐1 mice, 12.5 mg·kg^−1 i.v. and p.o.
[4] = whole blood, intravenous, 12.5 mg/kg
[5] = whole blood, po, 12.5 mg/kg, fasted CD-1 mice
[6] = whole blood, po, 12.5 mg/kg, fed CD-1 mice

Row | Compound | IC50 (haem polymerization) | MIC (H. influenzae ATCC49247) | MIC (S. aureus ATCC13709) | MIC (S. pneumoniae SP030) | MIC (S. pyogenes 3565) | B/P (ratio of AUC0−t in whole blood and plasma) ([1]; CD‐1 mice) | DNAUCPO (AUC0−t divided by the dose) ([1]; CD‐1 mice) | Vd ([1]; whole blood, 12.5 mg/kg) | clearance ([1]; whole blood, 12.5 mg/kg) | bioavailability [1, 3] | ED90 [2] | half-life [1, 4] | further results
1 | CC[C@H]1OC(=O)[C@H](C)[C@@H](O[C@H]2C[C@@](C)(OC)[C@@H](O)[C@H](C)O2)[C@H](C)[C@@H](O[C@@H]2O[C@H](C)C[C@H](N(C)C)[C@H]2O)[C@](C)(O)C[C@@H](C)CN(C)[C@H](C)[C@@H](O)[C@]1(C)O [Azithromycin, reference compound] | > 50 µM | 2 µg/mL (≈ 2.67 µM) | 1 µg/mL (≈ 1.34 µM) | ≤ 0.125 µg/mL | ≤ 0.125 µg/mL | 2.4 | 267 ng·kg·h/mL/mg | 29.2 L/kg | 40.2 mL/min/kg | 61% | > 200 mg/kg |  | half-life ([1]; in vivo, 12.5 mg/kg): 10.1 h
2 | CC[C@H]1OC(=O)[C@H](C)[C@@H](O[C@H]2C[C@@](C)(OC)[C@@H](O)[C@H](C)O2)[C@H](C)[C@@H](O[C@@H]2O[C@H](C)C[C@H](N(C)C)[C@H]2O)[C@](C)(O)C[C@@H](C)CN(CCCNc2ccnc3cc(Cl)ccc23)[C@H](C)[C@@H](O)[C@]1(C)O [Compound 1] | 2.5 to 4 µM | 16 µg/mL (≈ 16.8 µM) | 1 µg/mL (≈ 1.05 µM) | ≤ 0.125 µg/mL | ≤ 0.125 µg/mL | 14.0 | 253 ng·kg·h/mL/mg | 4.42 L/kg | 1.95 mL/min/kg | 4% |  | 28.2 h | bioavailability ([1]; whole blood, oral, 12.5 mg·kg^−1, F, fasted CD-1 mice, ratio of AUC0-t after PO and IV): 11.3%; bioavailability ([1]; whole blood, oral, 12.5 mg·kg^−1, F, fed CD-1 mice, ratio of AUC0-t after PO and IV): 3.75%; AUC(0-t) [1, 5]: 9510 ng·h/mL; AUC(0-t) [1, 6]: 3160 ng·h/mL; Cmax [1, 5]: 582 ng/mL; Cmax [1, 6]: 162 ng/mL; increase in oral F in fasted versus fed mice ([1]; fed versus fasted mice): threefold increase; day of follow‐up up to which parasitaemia remained undetectable / parasite growth suppressed ([2]; humanized mice, oral 4‐day treatment): ≥ 24 days
3 | CC[C@H]1OC(=O)[C@H](C)[C@@H](O)[C@H](C)[C@@H](O[C@@H]2O[C@H](C)C[C@H](N(C)C)[C@H]2OCCCNc2ccnc3ccccc23)[C@](C)(O)C[C@@H](C)CN[C@H](C)[C@@H](O)[C@]1(C)O [Compound 3] | 5 to 6.2 µM | > 64 µg/mL | > 64 µg/mL | > 64 µg/mL | > 64 µg/mL | 3.7 | 362 ng·kg·h/mL/mg | 13.4 L/kg | 10.1 mL/min/kg | 26% | 23.9 mg/kg | 15.6 h | 
